{"source": "patent US20090117176A1", "about": "“Anticancer Treatments” (Pharma Mar, S.A. Sociedad Unipersonal, priority 2004, published 2009)", "origin": "cited, not measured here", "details": "high-dose dexamethasone pretreatment, female rat; cited from earlier work"}
{"smiles": "C[C@@H]1C[C@H]2[C@@H]3CCC4=CC(=O)C=C[C@]4(C)[C@@]3(F)[C@@H](O)C[C@]2(C)[C@@]1(O)C(=O)CO", "note": "[dexamethasone]", "values": [{"measurement": "effect of pretreatment on ET-743 hepatotoxicity", "value": "abrogate ET-743-mediated hepatotoxicity"}]}
